Test results as given in patent publication US20180125796A1, “TREATMENT OF MYCOBACTERIAL INFECTION” (priority 2015, published 2018).

Test system: NPC1
Assay type: cell-based, Chinese Hamster

trehalose dimycolate [TDM]
resistance to phenotype induction by TDM versus extent of NPC1 overexpression: cells over-expressing NPC1 by 15-fold were more resistant than those over-expressing NPC1 5-fold
induction of NPC cellular phenotypes by TDM in CHO cells overexpressing NPC1, versus wild-type cells (FIG. 10B): more resistant to induction of NPC cellular phenotypes than wild-type cells
